Test: Repolarization time for compound was measured by pattern firing by APN and KVN blockade
Assay type: functional
Design: unit not given here

SMILES | Repolarization time
C=C(C)[C@H]1CN[C@H](C(=O)O)[C@H]1CC(=O)O | 19.9
N[C@@]1(C(=O)O)CC[C@H](C(=O)O)C1 (stereo in doubt; trans) | 17
N[C@H](Cn1oc(=O)[nH]c1=O)C(=O)O | 7.8
N[C@@]1(C(=O)O)CC[C@H](C(=O)O)C1 (stereo in doubt; cis) | 15
N[C@]1(C(=O)O)CC[C@@H](C(=O)O)C1 | 10.5
N[C@]1(C(=O)O)CC[C@H](C(=O)O)C1 | 12.7
CN[C@H](CC(=O)O)C(=O)O | 8

Source: ChEMBL document CHEMBL1124091, “Synthesis, resolution, and absolute configuration of the isomers of the neuronal excitant 1-amino-1,3-cyclopentanedicarboxylic acid” (J Med Chem, 1988)
